Drawing on BindingDB's records for doi:10.1021/acsmedchemlett.8b00333 (University of Calabria, 2019), this text covers EC50 for eight compounds.

Some results are limits rather than exact numbers.

This test in a line: Inverse agonist activity at GPR55 in human MDA-MB-231 cells assessed as reduction in cell viability incubated for 24 hrs by MTT assay. In general terms: Tetrazolium dyes change colour on reduction, which living cells bring about.

For `O=C1C(Cl)=C(N2CCCCC2)C(=O)c2c(O)ccc(O)c21`, the concentration for a half-maximal effect (EC50) amounted to 1.6 µM.
Take `CCN(CC)C1=C(Cl)C(=O)c2c(O)ccc(O)c2C1=O`: the EC50 was above 20 µM.
Regarding `CCCCN(CCCC)C1=C(Cl)C(=O)c2c(O)ccc(O)c2C1=O`, the concentration for a half-maximal effect (EC50) was above 20 µM.
In the case of `COc1ccc(OC)c2c1C(=O)C(Cl)=C(N1CCCCC1)C2=O`, the EC50 was above 10 µM.
On to `COc1ccc(OC)c2c1C(=O)C(Cl)=C(N1CCOCC1)C2=O`, for which the EC50 was above 10 µM.
With `O=C1C(Cl)=C(N2CCCC2)C(=O)c2c(O)ccc(O)c21`, the EC50 is above 10 µM.
Take `O=C1C(Cl)=C(N2CCOCC2)C(=O)c2c(O)ccc(O)c21`: the EC50 worked out at 2.7 µM.
`COc1ccc(OC)c2c1C(=O)C(Cl)=C(Cl)C2=O` [2,3-Dichloro-5,8-dimethoxy-[1,4]naphthoquinone]: the concentration for a half-maximal effect (EC50) was above 20 µM.

By EC50 is commonly meant the concentration at which the effect is half-maximal.
